This note sets out measurements from US6476030B1, “Pyrazolo-triazine derivatives as ligands for GABA receptors” (Merck Sharp & Dohme Ltd., priority 1998, dated 2002).

Each structure is given as a SMILES string. Where a name gives a salt, the structure may show the parent alone.

By melting point is commonly meant the temperature, or range, at which the solid turns liquid. Consider `Fc1ccccc1-c1c(OCc2cscn2)nn2c(-c3ccccc3F)nncc12` [Example 73, 3,7-bis(2-Fluorophenyl)-2-(thiazol-4-ylmethoxy)pyrazolo[1,5-d][1,2,4]triazine], for which the melting point is 212 °C. With `Cn1ncnc1COc1nn2c(-c3cc(F)ccc3F)nncc2c1C(C)(C)C` [Example 21, 7-(2,5-Difluorophenyl)-3-(1,1-dimethylethyl)-2-(2-methyl-2H-[1,2,4]triazol-3-ylmethoxy)pyrazolo[1,5-d][1,2,4]triazine] the figure was 144 °C; with `Cn1cc(COc2nn3c(-c4ccccc4F)nncc3c2-c2ccccc2F)nn1` [Example 61, 3,7-bis(2-Fluorophenyl)-2-(1-methyl-1H-[1,2,3]triazol-4-ylmethoxy)pyrazolo[1,5-d][1,2,4]triazine], 175 °C. Then `COc1cccnc1COc1nn2c(-c3ccccc3F)nncc2c1-c1ccccc1F` [Example 67, 3,7-bis(2-Fluorophenyl)-2-(3-methoxypyridin-2-ylmethoxy)pyrazolo[1,5-d][1,2,4]triazine], with 143 °C; and `CCCn1ncnc1COc1nn2c(-c3ccccc3F)nncc2c1C(C)(C)C` [Example 26, 3-(1,1-Dimethylethyl)-7-(2-fluorophenyl)-2-(2-propyl-2H-[1,2,4]triazol-3-ylmethoxy)pyrazolo[1,5-d][1,2,4]triazine], with 93 °C; and `Cc1cccnc1COc1nn2c(-c3ccccc3F)nncc2c1-c1ccccc1F` [Example 69, 3,7-bis(2-Fluorophenyl)-2-(3-methylpyridin-2-ylmethoxy)pyrazolo[1,5-d][1,2,4]triazine], with 69 °C. `Cn1ncnc1COc1nn2c(-c3ccccc3F)nncc2c1-c1cccnc1` [Example 35, 7-(2-Fluorophenyl)-2-(2-methyl-2H-[1,2,4]triazol-3-ylmethoxy)-3-(pyridin-3-yl)pyrazolo[1,5-d][1,2,4]triazine]: the melting point lay within 181 to 183 °C.

Compound `Cn1ncnc1COc1nn2c(-c3ccccc3F)nncc2c1-c1ccco1` [Example 55, 7-(2-Fluorophenyl)-3-(furan-2-yl)-2-(2-methyl-2H-[1,2,4]triazol-3-ylmethoxy)pyrazolo[1,5-d][1,2,4]triazine] came in with a melting point of 188 to 190 °C. For `Fc1ccccc1-c1c(OCc2ccncc2)nn2c(-c3ccccc3F)nncc12` [Example 64, 3,7-bis(2-Fluorophenyl)-2-(pyridin-4-ylmethoxy)pyrazolo[1,5-d][1,2,4]triazine], the melting point is 143 °C. The compound `Cn1ncnc1COc1nn2c(-c3ccccc3F)nncc2c1-c1cc(F)cc(F)c1` [Example 20, 3-(3,5-Difluorophenyl)-7-(2-fluorophenyl)-2-(2-methyl-2H-[1,2,4]triazol-3-ylmethoxy)pyrazolo[1,5-d][1,2,4]triazine] displayed a melting point of 171 to 173 °C. Then `Cn1ncnc1COc1nn2c(-c3ccccc3F)nncc2c1-c1cccc(N)c1` (as salt: hemisulfate) [Example 94, 3-(3-Aminophenyl)-7-(2-fluorophenyl)-2-(2-methyl-2H-[1,2,4]triazol-3-ylmethoxy)pyrazolo[1,5-d][1,2,4]triazine], with 196 to 200 °C; and `CCn1ncnc1COc1nn2c(-c3ccccc3F)nncc2c1-c1ccncc1` [Example 46, 2-(2-Ethyl-2H-[1,2,4]triazol-3-ylmethoxy)-7-(2-fluorophenyl)-3-(pyridin-4-yl)pyrazolo[1,5-d][1,2,4]triazine], with 214 to 217 °C. Turning to `CCn1ncnc1COc1nn2c(-c3ccccc3F)nncc2c1C(C)(C)C` [Example 25, 3-(1,1-Dimethylethyl)-2-(2-ethyl-2H-[1,2,4]triazol-3-ylmethoxy)-7-(2-fluorophenyl)pyrazolo[1,5-d][1,2,4]triazine], the melting point amounted to 105 °C. The compound `Cn1cnc(COc2nn3c(-c4ccccc4F)nncc3c2-c2ccccc2F)n1` [Example 59, 3,7-bis(2-Fluorophenyl)-2-(1-methyl-1H-[1,2,4]triazol-3-ylmethoxy)pyrazolo[1,5-d][1,2,4]triazine] displayed a melting point of 184 °C.

`Cn1ncnc1COc1nn2c(-c3ccccc3F)nncc2c1-c1cccc(C(F)(F)F)c1` [Example 18, 7-(2-Fluorophenyl)-2-(2-methyl-2H-[1,2,4]triazol-3-ylmethoxy)-3-[3-(trifluoromethyl)phenyl]pyrazolo[1,5-d][1,2,4]triazine] had a melting point of 152 to 155 °C. In turn, `Cc1cc(COc2nn3c(-c4ccccc4F)nncc3c2-c2ccccc2F)nn1C` [Example 90, 3,7-bis(2-Fluorophenyl)-2-(1,5-dimethyl-1H-pyrazol-3-ylmethoxy)-pyrazolo[1,5-d][1,2,4]triazine] displayed a melting point of 183 °C.

Regarding `Cn1ncnc1COc1nn2c(-c3cccc(F)c3)nncc2c1-c1ccccc1` [Example 7, 7-(3-Fluorophenyl)-2-(2-methyl-2H-[1,2,4]triazol-3-ylmethoxy)-3-phenylpyrazolo[1,5-d][1,2,4]triazine], the melting point worked out at 198 °C. As for `Cn1ncnc1COc1nn2c(-c3ccc(F)cc3F)nncc2c1C(C)(C)C` [Example 56, 7-(2,4-Difluorophenyl)-3-(1,1-dimethylethyl)-2-(2-methyl-2H-[1,2,4]triazol-3-ylmethoxy)pyrazolo[1,5-d][1,2,4]triazine], the melting point was determined as 118 °C. In the case of `Fc1ccccc1-c1c(OCc2ccncn2)nn2c(-c3ccccc3F)nncc12` [Example 78, 3,7-bis(2-Fluorophenyl)-2-(pyrimidin-4-ylmethoxy)pyrazolo[1,5-d][1,2,4]triazine], the melting point turned out to be 189 °C.

Regarding `Cn1ncnc1COc1nn2c(-c3cc(F)ccc3F)nncc2c1-c1ccccc1` [Example 13, 7-(2,5-Difluorophenyl)-2-(2-methyl-2H-[1,2,4]triazol-3-ylmethoxy)-3-phenylpyrazolo[1,5-d][1,2,4]triazine], the melting point came out at 199 °C. Turning to `Fc1ccccc1-c1c(OCc2nc3n(n2)CCCC3)nn2c(-c3ccccc3F)nncc12` [Example 83, 3,7-bis(2-Fluorophenyl)-2-(5,6,7,8-tetrahydro[1,2,4]triazolo[1,5-a]pyridin-2-ylmethoxy)pyrazolo[1,5-d][1,2,4]triazine], the melting point lay within 150 to 152 °C. As to `CCn1ncnc1COc1nn2c(-c3cc(F)ccc3F)nncc2c1C(C)(C)CC` [Example 33, 7-(2,5-Difluorophenyl)-3-(1,1-dimethylpropyl)-2-(2-ethyl-2H-[1,2,4]triazol-3-ylmethoxy)pyrazolo[1,5-d][1,2,4]triazine], the melting point was 85 to 86 °C. The compound `FCCn1ncnc1COc1nn2c(-c3ccccc3F)nncc2c1-c1ccccc1F` [Example 86, 2-[2-(2-Fluoroethyl)-2H-[1,2,4]triazol-3-ylmethoxy]-3,7-bis(2-fluorophenyl)-pyrazolo[1,5-d][1,2,4]triazine] registered a melting point of 172 to 173 °C. The compound `CCn1ncnc1COc1nn2c(-c3ccccc3F)nncc2c1-c1cccs1` [Example 92, 2-(2-Ethyl-2H-[1,2,4]triazol-3-ylmethoxy)-7-(2-fluorophenyl)-3-(thien-2-yl)pyrazolo[1,5-d][1,2,4]triazine] registered a melting point of 190 to 192 °C.

With `CCCn1ncnc1COc1nn2c(-c3ccc(F)cc3)nncc2c1-c1ccccc1F` [Example 48, 3-(2-Fluorophenyl)-7-(4-fluorophenyl)-2-(2-propyl-2H-[1,2,4]triazol-3-ylmethoxy)pyrazolo[1,5-d][1,2,4]triazine], the melting point turned out to be 148 °C.

For `CCn1ncnc1COc1nn2c(-c3c(F)ccc(F)c3F)nncc2c1C(C)(C)C` [Example 29, 3-(1,1-Dimethylethyl)-2-(2-ethyl-2H-[1,2,4]triazol-3-ylmethoxy)-7-(2,3,6-trifluorophenyl)pyrazolo[1,5-d][1,2,4]triazine], the melting point was found to be 42 °C. In the case of `CC(C)n1ncnc1COc1nn2c(-c3cc(F)ccc3F)nncc2c1C(C)(C)C` [Example 30, 7-(2,5-Difluorophenyl)-3-(1,1-dimethylethyl)-2-(2-isopropyl-2H-[1,2,4]triazol-3-ylmethoxy)pyrazolo[1,5-d][1,2,4]triazine], the melting point was 163 °C. In the case of `CCn1ncnc1COc1nn2c(-c3ccc(F)cc3)nncc2c1C(C)(C)C` [Example 38, 3-(1,1-Dimethylethyl)-2-(2-ethyl-2H-[1,2,4]triazol-3-ylmethoxy)-7-(4-fluorophenyl)pyrazolo[1,5-d][1,2,4]triazine], the melting point was 190 °C.

`Cn1ncnc1COc1nn2c(-c3ccc(F)cc3F)nncc2c1-c1ccccc1F` [Example 52, 7-(2,4-Difluorophenyl)-3-(2-fluorophenyl)-2-(2-methyl-2H-[1,2,4]triazol-3-ylmethoxy)pyrazolo[1,5-d][1,2,4]triazine] yielded a melting point of 164 to 166 °C. Turning to `Cn1ncnc1COc1nn2c(-c3ccccc3F)nncc2c1-c1cc(F)ccc1F` [Example 14, 3-(2,5-Difluorophenyl)-7-(2-fluorophenyl)-2-(2-methyl-2H-[1,2,4]triazol-3-ylmethoxy)Pyrazolo[1,5-d][1,2,4]triazine], the melting point fell in the range of 164 to 165 °C. In turn, `Cn1ncnc1COc1nn2c(-c3ccccc3F)nncc2c1-c1cccc(C#N)c1` [Example 97, 3-(3-Cyanophenyl)-7-(2-fluorophenyl)-2-(2-methyl-2H-[1,2,4]triazol-3-ylmethoxy)pyrazolo[1,5-d][1,2,4]triazine] showed a melting point of 194 to 196 °C.

The compound `Cn1ncnc1COc1nn2c(-c3ccccc3F)nncc2c1I` [Example 96, 7-(2-Fluorophenyl)-3-iodo-2-(2-methyl-2H-[1,2,4]triazol-3-ylmethoxy)-pyrazolo[1,5-d][1,2,4]triazine] came in with a melting point of 218 to 219 °C. `Cc1csc(COc2nn3c(-c4ccccc4F)nncc3c2-c2ccccc2F)n1` [Example 71, 3,7-bis(2-Fluorophenyl)-2-(4-methylthiazol-2-ylmethoxy)pyrazolo[1,5-d][1,2,4]triazine] gave a melting point of 176 °C. For `Cn1ncnc1COc1nn2c(-c3ccccc3)nncc2c1-c1ccccc1` [Example 12, 3,7-Diphenyl-2-(2-methyl-2H-[1,2,4]triazol-3-ylmethoxy)pyrazolo[1,5-d][1,2,4]triazine], the melting point amounted to 185 °C.
